Tests used:
[1] = system: MB mouse model of glaucoma; assay: IOP in microbead (MB) mouse model of glaucoma, intraperitoneal dosing; assay type: in vivo
Method: FIG. 2 confirms that the mouse model for glaucoma causes RGC degeneration. Specifically, microbeads (MBs) were injected into the anterior chamber of a mouse eye. The MBs increase intraocular IOP above 15 mm Hg by blocking outflow of the aqueous humor within the anterior chamber of the eye. MBs were reinjected as needed to maintain a high IOP, typically one injection every two weeks. Contralateral eyes were injected intraocularly with the vehicle PBS (phosphate buffered saline) as controls. […] IOP levels were measured at least twice weekly before and after intraocular injections. After injections, mice recovered for 48 hours before IOP measurements resumed. […] Retinas were then removed and processed for immunohistochemistry (IHC). […] After rinsing with PBS, PBS containing the secondary antibody conjugated to fluorophores (Alexa 488 or Alexa 594; […] Retinas were rinsed and flat-mounted on microscope slides. Mounting medium was added and retinal wholemounts were coverslipped. The density of RGCs was imaged with a confocal microscope (Zeiss LSM 510) and quantified by counting NeuN-, CFP- and/or Tuj-1—labeled somata in the RGC layer of the retinal wholemount preparation. Injection of microbeads induces RGC degeneration after 8 weeks but not after 4 weeks. […] Mice were sedated with IP injection of Avertin with final amount calculated by weight (e.g., 0.5 ml for 21-24 g animals). […]

MB model of glaucoma = assay: IOP time course after a single eye drop in the MB model of glaucoma; assay type: in vivo, mouse; details: single dose eye drop
Method: Specifically, microbeads (MBs) were injected into the anterior chamber of a mouse eye as described in Example 2 with PBS-injected eyes used as controls. Compound 1 (10 mg/kg body weight) (or PBS vehicle) was injected intraperitoneally (IP). […] IOP was measured in mice between 10:00 AM and 1:00 PM with the TonoLab rebound tonometer (Colonial Medical Supply, Franconia, NH/Tyolat, Helsinki, Finland). Mice were sedated with IP injection of Avertin with final amount calculated by weight (e.g., 0.5 ml for 21-24 g animals). Animals were placed on a jack stand platform and the tonolab was clamped on a ring stand and centered onto the mid-cornea. During measurements animal were neither restrained nor touched. Each eye was measured twenty consecutive times, the highest and lowest values were discarded and the values were averaged.
FIG. 9 illustrates the short-term effects of a single dose of Compound 1 (eye drop) in the MB model of glaucoma. IOP was measured as described in Example 3 at the indicated time points after receiving a drop of Compound 1. Compound 1 reduced IOP beginning at 1 hour after dosing and continued through 6 hours after dosing.
FIG. 10 illustrates a time course of Compounds 1, 2, 5 and Compound 2-HCl as well as a positive control compound, timolol, with regard to inhibition of IOP. The experiment was conducted as described in Example 9. Each of the TRPV4 antagonists reduced IOP with a similar time course. Specifically, Compounds 1, 2, 5 and Compound 2-HCl reduced IOP for at least 6 hours after dosing.
FIG. 11 illustrates a time course of Compound 2-HCl activity. The experiment was conducted as described in Example 9. […] 2
FIG. 12 illustrates a comparison of the time course of Compound 2-HCl and Compound 5. The experiment was conducted as described in Example 9.

retinal ganglion cells [2] = assay: Hypotonic swelling-induced calcium influx in retinal ganglion cells (Fura-2); assay type: cell-based
Excerpt: Cells were labeled with fluorescent calcium indicator dye Fura-2 and exposed to hypotonic solutions in which extracellular sodium was replaced by the osmotically inert substance mannitol, as described in […] et al. (J. Neurosci. 2011 May 11; 31(19):7089-101; PMID 21562271).

[3] = system: retinal neurons (RGCs) and glia (Müller cells); assay: Hypotonic stimuli: cell swelling (change in cell area) and [Ca++]i; assay type: cell-based
Excerpt: FIG. 18A illustrates the effect of hypotonic stimuli on cell swelling as measured by change in cell area. Hypotonic stimuli were generated by replacing extracellular sodium levels to lower osmolarity from 300 mOsm to 190 mOsm.

Müller cells = assay: Arachidonic acid-induced [Ca2+]i in Müller cells; assay type: cell-based; details: 1 μM, against 10 μM arachidonic acid
Method: This response is blocked by Compound 1 (1 μM).

retinal ganglion cells [4] = assay: In vivo intraocular injection of TRPV4 agonist GSK, NeuN+ RGC count; details: intraocular GSK, 48 hours
Method: In this experiment, GSK (100-300 nM) was injected intraocularly with a Hamilton syringe. Retinas were isolated after 48 hours, fixed and labeled with the RGC marker antibody NeuN. NeuN-immunopositive somata in the ganglion cell layer, shown in the panel on the right, were counted. The bar graph represents quantification of NeuN^+ cells in the indicated experimental groups.

TRPV4 = TRPV4 (Mus musculus, UniProt Q9EPK8); assay: AGB cation influx into retinal cells (anti-AGB antibody); assay type: cell-based; parameters: these two cell types express TRPV4 channels in the mouse retina; from tissue; host or cells: mouse retina; details: mouse retina
Method: FIG. 16 illustrates the effect of the TRPV4 agonist GSK on cation influx into mouse retinal cells of the mouse retina. The influx was determined using the anti-AGB antibody, as described by Marc RE (J Comp Neurol 407(1): 47-64, 1999). AGB is a membrane permeant cation that can flow through most known cation channels. Using an anti-AGB antibody, it can be determined where the cation flux occurs and, therefore, which cells are activated.

Chain of TRPV4 (Q9EPK8 whole entry): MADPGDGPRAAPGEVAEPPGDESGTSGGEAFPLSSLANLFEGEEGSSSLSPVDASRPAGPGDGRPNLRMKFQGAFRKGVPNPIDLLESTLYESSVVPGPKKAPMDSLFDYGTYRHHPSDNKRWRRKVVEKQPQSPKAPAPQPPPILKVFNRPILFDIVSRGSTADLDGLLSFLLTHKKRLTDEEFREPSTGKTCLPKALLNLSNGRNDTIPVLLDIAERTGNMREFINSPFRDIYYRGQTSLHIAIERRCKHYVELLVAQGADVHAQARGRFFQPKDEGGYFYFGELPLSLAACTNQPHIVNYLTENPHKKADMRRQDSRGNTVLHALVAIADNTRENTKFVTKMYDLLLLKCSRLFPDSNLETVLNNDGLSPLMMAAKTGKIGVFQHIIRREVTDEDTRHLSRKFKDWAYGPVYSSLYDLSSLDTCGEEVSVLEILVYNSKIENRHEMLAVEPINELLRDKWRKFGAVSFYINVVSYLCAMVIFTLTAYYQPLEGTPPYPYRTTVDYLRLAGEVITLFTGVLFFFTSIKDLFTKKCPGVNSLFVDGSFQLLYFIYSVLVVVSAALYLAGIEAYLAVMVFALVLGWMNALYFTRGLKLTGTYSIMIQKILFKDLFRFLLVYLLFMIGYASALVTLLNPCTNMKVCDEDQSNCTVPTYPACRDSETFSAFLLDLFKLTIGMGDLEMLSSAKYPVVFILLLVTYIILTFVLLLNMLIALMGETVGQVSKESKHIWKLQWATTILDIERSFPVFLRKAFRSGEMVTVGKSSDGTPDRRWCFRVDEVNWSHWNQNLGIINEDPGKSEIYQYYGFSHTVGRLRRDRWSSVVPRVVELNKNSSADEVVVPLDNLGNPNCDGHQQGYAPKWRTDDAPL

Cc1c(C(=O)Nc2cccc(C(F)(F)F)c2)cc(-c2ccccc2)n1CCCN1CCOCC1 [Compound 1, N-(3-(trifluoromethyl)phenyl)-2-methyl-1-(3-morpholinopropyl)-5-phenyl-1H-pyrrole-3-carboxamide]
IOP ([1]; 10 mg/kg body weight intraperitoneally, MB-injected eyes vs PBS-injected eyes): blocked the increase in IOP to the level observed in control mice | average IOP, cumulative effectiveness ([1]; daily IP injections, cumulative data from 3 independent experiments): blocks MB-induced increases in IOP | onset of IOP reduction after dosing (MB model of glaucoma): 1 h | effect of cell swelling on intracellular calcium levels in ganglion cells (retinal ganglion cells [2]; 140 mOsm saline): blocked | pressure-dependent influx of calcium in RGCs (FIG. 17C) (retinal ganglion cells [2]; hypotonic solutions): prevents the pressure-dependent influx of calcium in RGCs | hypotonic stimuli-induced increase in [Ca++]i (FIG. 18B) ([3]; hypotonic stimuli): inhibited | cell swelling (change in cell area) ([3]; osmolarity lowered from 300 mOsm to 190 mOsm): prevented hypotonic stimuli-mediated cell swelling to the same extent as BAPTA-AM | block of arachidonic acid-induced [Ca2+]i increase (Müller cells): blocked | block of GSK-induced RGC degeneration (retinal ganglion cells [4]): blocked | antagonism of the effect of GSK on AGB cation influx (TRPV4): strongly antagonized

Source: US20130303539A1, “COMPOUNDS WITH TRPV4 ACTIVITY, COMPOSITIONS AND ASSOCIATED METHODS THEREOF” (priority 2012, published 2013)
